Article PMC5845353, “The selective cathepsin K inhibitor MIV-711 attenuates joint pathology in experimental animal models of osteoarthritis” (Journal of Translational Medicine, 2018)

Tested on: rabbits subjected to anterior cruciate ligament transection (ACLT)
Assay: Rabbit ACLT study, histomorphometry of bone, cartilage and osteophytes
Assay type: in vivo
Procedure: The femora and tibias were decalcified, embedded in paraffin, sectioned at 5-7 µm at two different levels separated by approximately 2 mm, and stained with safranin O and toluidine blue.
Both tibial plateaus and femoral condyles (i.e. four joint compartments) were also subjected to histomorphometric analysis of cartilage, subchondral bone, cancellous bone, and osteophytes. The measurements were made using OsteoMeasureXP version 3.3.0.2 as follows:
Uncalcified cartilage area was measured by tracing the articular surface (cartilage perimeter) and bone or calcified cartilage/uncalcified cartilage interface (cartilage boundary).
Cartilage width was measured by point to point measurement at intersections between a sampling grid with approximately 0.5 mm spacing and the cartilage boundary. The intercepts measured were orthogonal to the cartilage boundary and ended at the cartilage perimeter. At intersections where the cartilage width was zero due to erosion, a value of zero was recorded.
Subchondral bone width was measured by point to point measurement at intersections between a sampling grid with approximately 0.5 mm spacing and the cartilage boundary. The intercepts measured were orthogonal to the cartilage boundary and ended at the first marrow cavity encountered that had at least one dimension approximately equivalent to nearby trabecular thickness.
Osteophyte area was measured for abaxial osteophytes. On the femur, osteophytes associated with the condyles but not with the trochlear grooves were measured.
Bone area (including osteoid) and perimeter were measured in a 3.8 X 1.5 mm ROI centered approximately 1 mm below the bone/cartilage interface. This ROI was intended to be equivalent to the subchondral cancellous bone VOI measured by microCT. Bone volume (BV/TV), trabecular thickness (Tb.Th), trabecular number (Tb.N) and trabecular separation (Tb.Sp) were derived from these measurements using standard formulae.
Slides were evaluated in animal ID order, i.e. in random order with respect to treatment, so that the measurer was effectively blinded to treatment assignment.
Analysis was performed on all four condyles at two levels (Level 1 and 2) for each condyle:
Group 1) sham + vehicle; Group 2) ACLT + vehicle; Group 3) ACLT + MIV-711, 30 µmol/kg (low dose) and Group 4) ACLT + MIV-711, 100 µmol/kg (high dose).

[1] = Level 1 LFC, Group 3, ACLT + MIV-711 30 µmol/kg
[2] = Level 1 LFC, Group 4, ACLT + MIV-711 100 µmol/kg

C#C[C@@H]1CN(C(=O)[C@H](CC(C)C)NC(=O)c2ccc(-c3nc(N4CCN(C)CC4)sc3F)cc2)[C@@H]2C(=O)CO[C@H]12 [MIV-711]
effect on osteophyte parameters at the microscopic level (ACLT rabbits, 30 and 100 µmol/kg): did not affect
Cart.Bd, Mean (Level 1, MFC, Group 3): 8.37 mm
Cart.Bd, Median (Level 1, MFC, Group 3): 8.42 mm
Cart.Pm, Mean (Level 1, MFC, Group 3): 9.31 mm
Cart.Pm, Median (Level 1, MFC, Group 3): 9.55 mm
Cart.Wi, Mean (Level 1, MFC, Group 3): 264.49 µm
Cart.Wi, Median (Level 1, MFC, Group 3): 233.46 µm
SCB.Wi, Mean (Level 1, MFC, Group 3): 796.52 µm
SCB.Wi, Median (Level 1, MFC, Group 3): 695.73 µm
Cart.Bd, Mean (Level 1, MFC, Group 4): 8.94 mm
Cart.Bd, Median (Level 1, MFC, Group 4): 8.89 mm
Cart.Pm, Mean (Level 1, MFC, Group 4): 10.24 mm
Cart.Pm, Median (Level 1, MFC, Group 4): 10.20 mm
Cart.Wi, Mean (Level 1, MFC, Group 4): 323.96 µm
Cart.Wi, Median (Level 1, MFC, Group 4): 341.58 µm
SCB.Wi, Mean (Level 1, MFC, Group 4): 655.48 µm
SCB.Wi, Median (Level 1, MFC, Group 4): 627.36 µm
BV/TV, Mean (Level 1, MTP, Group 3): 37.43%
BV/TV, Median (Level 1, MTP, Group 3): 39.13%
Cart.Ar, Mean (Level 1, MTP, Group 3): 3.43 mm2
Cart.Ar, Median (Level 1, MTP, Group 3): 3.15 mm2
Cart.Bd, Mean (Level 1, MTP, Group 3): 5.74 mm
Cart.Bd, Median (Level 1, MTP, Group 3): 5.82 mm
Cart.Pm, Mean (Level 1, MTP, Group 3): 5.96 mm
Cart.Pm, Median (Level 1, MTP, Group 3): 5.73 mm
Cart.Wi, Mean (Level 1, MTP, Group 3): 627.75 µm
Cart.Wi, Median (Level 1, MTP, Group 3): 633.18 µm
Ophte.Ar, Mean (Level 1, MTP, Group 3): 7.76 mm2
Ophte.Ar, Median (Level 1, MTP, Group 3): 7.61 mm2
SCB.Wi, Mean (Level 1, MTP, Group 3): 718.50 µm
SCB.Wi, Median (Level 1, MTP, Group 3): 715.91 µm
Tb.N, Mean (Level 1, MTP, Group 3): 2.07 1/mm
Tb.N, Median (Level 1, MTP, Group 3): 1.97 1/mm
Tb.Sp, Mean (Level 1, MTP, Group 3): 306.15 µm
Tb.Sp, Median (Level 1, MTP, Group 3): 294.58 µm
Tb.Th, Mean (Level 1, MTP, Group 3): 182.44 µm
Tb.Th, Median (Level 1, MTP, Group 3): 174.84 µm
BV/TV, Mean (Level 1, MTP, Group 4): 35.92%
BV/TV, Median (Level 1, MTP, Group 4): 35.01%
Cart.Ar, Mean (Level 1, MTP, Group 4): 2.98 mm2
Cart.Ar, Median (Level 1, MTP, Group 4): 3.00 mm2
Cart.Bd, Mean (Level 1, MTP, Group 4): 5.22 mm
Cart.Bd, Median (Level 1, MTP, Group 4): 5.08 mm
Cart.Pm, Mean (Level 1, MTP, Group 4): 6.31 mm
Cart.Pm, Median (Level 1, MTP, Group 4): 5.70 mm
Cart.Wi, Mean (Level 1, MTP, Group 4): 618.52 µm
Cart.Wi, Median (Level 1, MTP, Group 4): 551.09 µm
Ophte.Ar, Mean (Level 1, MTP, Group 4): 9.09 mm2
Ophte.Ar, Median (Level 1, MTP, Group 4): 7.85 mm2
SCB.Wi, Mean (Level 1, MTP, Group 4): 839.92 µm
SCB.Wi, Median (Level 1, MTP, Group 4): 790.92 µm
Tb.N, Mean (Level 1, MTP, Group 4): 1.91 1/mm
Tb.N, Median (Level 1, MTP, Group 4): 1.80 1/mm
Tb.Sp, Mean (Level 1, MTP, Group 4): 346.56 µm
Tb.Sp, Median (Level 1, MTP, Group 4): 370.02 µm
Tb.Th, Mean (Level 1, MTP, Group 4): 190.56 µm
Tb.Th, Median (Level 1, MTP, Group 4): 188.86 µm
BV/TV, Mean [1]: 37.49%
BV/TV, Median [1]: 36.26%
Cart.Ar, Mean [1]: 2.52 mm2
Cart.Ar, Median [1]: 2.55 mm2
Cart.Bd, Mean [1]: 9.42 mm
Cart.Bd, Median [1]: 9.52 mm
Cart.Pm, Mean [1]: 10.23 mm
Cart.Pm, Median [1]: 10.40 mm
Cart.Wi, Mean [1]: 263.55 µm
Cart.Wi, Median [1]: 269.31 µm
Ophte.Ar, Mean [1]: 2.48 mm2
Ophte.Ar, Median [1]: 1.89 mm2
SCB.Wi, Mean [1]: 527.88 µm
SCB.Wi, Median [1]: 537.74 µm
Tb.N, Mean [1]: 2.87 1/mm
Tb.N, Median [1]: 2.78 1/mm
Tb.Sp, Mean [1]: 221.27 µm
Tb.Sp, Median [1]: 221.54 µm
Tb.Th, Mean [1]: 131.58 µm
Tb.Th, Median [1]: 132.19 µm
BV/TV, Mean [2]: 40.76%
BV/TV, Median [2]: 39.99%
Cart.Ar, Mean [2]: 3.28 mm2
